# Experimental data taken from ChEMBL document CHEMBL1201862, “PubChem BioAssay data set” (2004).
#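 Following 48 hours of exposure in 96-well plates, responses at five concentrations were used to interpolate endpoints linearly. GI50 is the concentration that inhibits growth by half.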 Activity calls are given as the source filed them. Rule as the data show it: active = GI50 up to about 1.1 µM and inactive = higher.
# Key:
# Test in all cases: NCI anticancer screen, dose series, 48 h
# MDA-N = system: MDA-N
# XF498 = system: XF498
# DMS-114 = system: DMS-114
# HOP-18 = system: HOP-18
# DLD-1 = system: DLD-1
# LXFL 529 = system: LXFL 529
# M19-MEL = system: M19-MEL
# KM-20L2 = system: KM-20L2
compound,measurement,setting,value
O=C(Nc1cc2cc([N+](=O)[O-])ccc2oc1=O)c1cccs1,GI50,MDA-N,46.1 µM (inactive)
CC1=CC(=O)/C(=C/N2C(=O)CNC2=S)C(=O)O1,GI50,MDA-N,> 100 µM (inactive)
C=CC(C)(C)c1c(OC)oc2ccc(OC)c(C)c2c1=O,GI50,MDA-N,> 100 µM (inactive)
COc1cc(CCCC(O)COc2cccc3c2C2(O)CCCCCC32)cc(OC)c1 (centres undefined),GI50,XF498,19.9 µM (inactive)
same,GI50,DMS-114,11.4 µM (inactive)
same,GI50,HOP-18,16 µM (inactive)
same,GI50,DLD-1,20.1 µM (inactive)
same,GI50,LXFL 529,16.5 µM (inactive)
same,GI50,M19-MEL,17 µM (inactive)
same,GI50,KM-20L2,14.1 µM (inactive)
N#CC1(Cc2ccccc2[N+](=O)[O-])c2ccccc2C2C(N1C(=O)c1ccccc1)C2(Cl)Cl (centres undefined),GI50,DMS-114,> 100 µM (inactive)
same,GI50,HOP-18,> 100 µM (inactive)
same,GI50,DLD-1,3.6 µM (inactive)
same,GI50,LXFL 529,> 100 µM (inactive)
same,GI50,M19-MEL,> 100 µM (inactive)
same,GI50,KM-20L2,7.19 µM (inactive)
O=C(O)c1cnccc1-c1cc(=O)[nH]n1-c1ccccc1,GI50,MDA-N,41.8 µM (inactive)
CCOC(=O)c1c(C)n(C)c2c1cc(O)c1[nH]c3c(c12)CCCC3,GI50,MDA-N,15.6 µM (inactive)
CC(=O)NC1CONC1=O (centres undefined),GI50,MDA-N,> 100 µM (inactive)
Cc1nc2sccn2c1C(=O)NC(=O)Nc1ccc(Cl)cc1,GI50,XF498,19.2 µM (inactive)
same,GI50,DMS-114,50.5 µM (inactive)
same,GI50,DLD-1,> 100 µM (inactive)
same,GI50,LXFL 529,> 100 µM (inactive)
same,GI50,M19-MEL,> 100 µM (inactive)
same,GI50,KM-20L2,> 100 µM (inactive)
Cc1cc(S(=O)(=O)Nc2nc(N)n[nH]2)c(SCC(=O)O)cc1Cl,GI50,MDA-N,> 10 µM (inactive)
CN(CN1C(=O)C2Cc3ccccc3CN2C1=O)c1ccccn1 (centres undefined),GI50,XF498,> 100 µM (inactive)
same,GI50,DMS-114,> 100 µM (inactive)
same,GI50,DLD-1,> 100 µM (inactive)
same,GI50,LXFL 529,> 100 µM (inactive)
same,GI50,M19-MEL,> 100 µM (inactive)
same,GI50,KM-20L2,> 100 µM (inactive)
CC1(C)CC2C(=O)c3ccccc3NC2c2ccccc21 (centres undefined),GI50,MDA-N,0.32 µM (active)
CCS(=O)(=O)c1c2cc(OC)ccc2nc2ccc(OC)cc12,GI50,MDA-N,> 100 µM (inactive)
O[C@H]1[C@H](O)[C@@H](O)[C@@]2(O)C[C@@H](O)[C@@H]1N2,GI50,MDA-N,> 100 µM (inactive)
Nc1ccc2ncc(NCc3ccc(F)cc3)nc2c1,GI50,XF498,19.5 µM (inactive)
same,GI50,DMS-114,49 µM (inactive)
same,GI50,HOP-18,> 100 µM (inactive)
same,GI50,DLD-1,> 100 µM (inactive)
same,GI50,LXFL 529,> 100 µM (inactive)
same,GI50,M19-MEL,> 100 µM (inactive)
same,GI50,KM-20L2,> 100 µM (inactive)
CC(=O)OCC1OC(OC2C(COC(C)=O)OC(Sc3ccccc3C)C(OC(C)=O)C2OC(C)=O)C(OC(C)=O)C(OC(C)=O)C1OC(C)=O (centres undefined),GI50,DMS-114,> 100 µM (inactive)
same,GI50,HOP-18,> 100 µM (inactive)
same,GI50,DLD-1,> 100 µM (inactive)
same,GI50,LXFL 529,> 100 µM (inactive)
same,GI50,M19-MEL,> 100 µM (inactive)
same,GI50,KM-20L2,> 100 µM (inactive)
N=C(c1ccccc1)N(c1ccccc1)c1ccccc1,GI50,HOP-18,0.0415 µM (active)
same,GI50,DLD-1,63.5 µM (inactive)
same,GI50,LXFL 529,21.6 µM (inactive)
same,GI50,M19-MEL,> 100 µM (inactive)
same,GI50,KM-20L2,> 100 µM (inactive)
O=C1/C(=C/c2ccc(OC(=O)c3ccc(Cl)cc3)cc2)CCC/C1=C\c1ccc(OC(=O)c2ccc(Cl)cc2)cc1,GI50,MDA-N,> 100 µM (inactive)
CN(C)CCNc1ccc(C(=O)NCCCN(C)CCCNC(=O)c2ccc(NCCN(C)C)c3c(=O)c4ccccc4[nH]c23)c2[nH]c3ccccc3c(=O)c12,GI50,MDA-N,0.0346 µM (active)
CCOC(=O)C(Cc1ccc(OC(=O)OC(C)(C)C)cc1)NC(=O)OC(C)(C)C (centres undefined),GI50,MDA-N,> 100 µM (inactive)
COc1ccc(/C=C/C(=O)Oc2ccccc2OC)cc1,GI50,MDA-N,36.4 µM (inactive)
O=C(c1ccccc1)C1C(c2ccccc2[N+](=O)[O-])N1C1CCCCC1 (centres undefined),GI50,MDA-N,2.06 µM (inactive)
CC1=CC(=O)/C(=C/NC(=S)C(N)=S)C(=O)O1,GI50,MDA-N,> 100 µM (inactive)
CC(=O)OCC1OC(n2c(C)c(C(C)=O)c(-c3ccco3)c(C#N)c2=S)C(OC(C)=O)C(OC(C)=O)C1OC(C)=O (centres undefined),GI50,MDA-N,> 100 µM (inactive)
COc1cc(C(=O)NNC(=O)c2cc(Br)ccc2NC(=O)c2cccs2)cc(OC)c1OC,GI50,MDA-N,24.8 µM (inactive)
CCC1([N+](=O)[O-])CN(N=O)C1,GI50,MDA-N,> 100 µM (inactive)
CC(=O)O[C@@]1(C)[C@@H](C)C(=O)O[C@@H]2CCN3CC=C(COC(=O)[C@]1(C)O)[C@H]23,GI50,DMS-114,> 100 µM (inactive)
same,GI50,DLD-1,> 100 µM (inactive)
same,GI50,LXFL 529,> 100 µM (inactive)
same,GI50,M19-MEL,> 100 µM (inactive)
same,GI50,KM-20L2,> 100 µM (inactive)
C/C(=C/C(=O)Nn1c(Cc2ccccc2)n[nH]c1=O)C(=O)O,GI50,MDA-N,> 100 µM (inactive)
COCN(CCC1=CCCCC1)C(=O)OC,GI50,MDA-N,> 100 µM (inactive)
CCOC(=O)C(=[N+]=[N-])C(=O)C1(C(=O)OCC)CCN(C(=O)c2ccccc2)C1=O (centres undefined),GI50,MDA-N,> 100 µM (inactive)
CC1(C)C(=O)N(O)C(C)(C)N1O,GI50,MDA-N,> 10 µM (inactive)
C[N+](C)(CCNC(=O)c1cccc2cc3ccccc3nc12)Cc1ccc([N+](=O)[O-])cc1,GI50,MDA-N,> 100 µM (inactive)
Nc1c(Br)cc(-c2cc(Br)c(N)c(Br)c2)cc1Br,GI50,MDA-N,> 100 µM (inactive)
O=C1/C(=C/c2ccc(Cl)cc2)N=C(c2ccccc2)N1C1Nc2cc3c(cc2S1)NC(N1C(=O)/C(=C/c2ccc(Cl)cc2)N=C1c1ccccc1)S3 (centres undefined),GI50,MDA-N,45.2 µM (inactive)
COc1ccc(/C=C2/C(=O)N(/C=C3\C(=O)Oc4ccccc4C3=O)/C(=N/C(C)=O)N2C)cc1OC,GI50,MDA-N,> 100 µM (inactive)
CC(C)(C)NCc1cc(C(C)(C)C)cc(-c2ccc(Cl)cc2)c1O,GI50,MDA-N,16.1 µM (inactive)
c1cc2ccc3cc4ncccc4c4ccc(c1)c2c34,GI50,MDA-N,41.9 µM (inactive)
CNC(=O)Nc1cc2c3c(c1)CCCN3CCC2,GI50,MDA-N,> 10 µM (inactive)
NC(=O)c1cccc(/N=c2\oc3ccc(Br)cc3cc2-c2nc3ccccc3[nH]2)c1,GI50,MDA-N,17.7 µM (inactive)
NC(=O)C(c1ccccc1)N1CCOCC1 (centres undefined),GI50,DMS-114,> 100 µM (inactive)
same,GI50,HOP-18,> 100 µM (inactive)
same,GI50,DLD-1,> 100 µM (inactive)
same,GI50,LXFL 529,> 100 µM (inactive)
same,GI50,M19-MEL,> 100 µM (inactive)
same,GI50,KM-20L2,> 100 µM (inactive)
C/C(O)=C/C(=O)c1[nH]c(C(=O)O)cc1C1CCN(Cc2ccccc2)C1=O (centres undefined),GI50,MDA-N,17.2 µM (inactive)
O=c1n(CCO)nc2n1CCCN2,GI50,MDA-N,> 100 µM (inactive)
Cc1nc(O)nc2nc3ccc(Cl)cc3c(N(CCO)CCO)c12,GI50,MDA-N,> 100 µM (inactive)
Cc1ccc(S(=O)(=O)N2C3C=CC(C3)[C@@H]2C(Cl)(Cl)Cl)cc1 (some centres undefined),GI50,MDA-N,35 µM (inactive)
CN(C)c1cc2ccccc2oc1=O,GI50,MDA-N,> 100 µM (inactive)
Nc1c2ccccc2nc2c(C(=O)Nc3ccc(S(N)(=O)=O)cc3)cccc12,GI50,XF498,72.3 µM (inactive)
same,GI50,DMS-114,> 100 µM (inactive)
same,GI50,DLD-1,> 100 µM (inactive)
same,GI50,LXFL 529,45.2 µM (inactive)
same,GI50,M19-MEL,60 µM (inactive)
same,GI50,KM-20L2,> 100 µM (inactive)
CC1=C(C(=O)Nc2ccccc2C)C(c2ccccc2)C(C(=O)Nc2ccccc2C)=C(C)N1,GI50,XF498,23.1 µM (inactive)
same,GI50,DMS-114,30.4 µM (inactive)
same,GI50,HOP-18,36.6 µM (inactive)
same,GI50,DLD-1,41 µM (inactive)
same,GI50,LXFL 529,30.5 µM (inactive)
same,GI50,M19-MEL,37.2 µM (inactive)
same,GI50,KM-20L2,42.2 µM (inactive)
COC(=O)[C@]12CCC(C)[C@H](C)[C@H]1C1=CCC3[C@@]4(C)CC[C@H](OC(C)=O)C(C)(C)C4CC[C@@]3(C)C1(C)C(O)C2 (some centres undefined),GI50,XF498,27.9 µM (inactive)
same,GI50,DMS-114,61.7 µM (inactive)
same,GI50,HOP-18,> 100 µM (inactive)
same,GI50,DLD-1,> 100 µM (inactive)
same,GI50,LXFL 529,77.3 µM (inactive)
same,GI50,M19-MEL,> 100 µM (inactive)
same,GI50,KM-20L2,> 100 µM (inactive)
COc1cc2c(c(OC)c1OC)-c1ccc(SC)c(=O)cc1[C@@H](OC(C)=O)CC2,GI50,MDA-N,< 0.01 µM (active)
C/C(=N\Nc1nc2ccccc2o1)c1cc2ccccc2cn1,GI50,MDA-N,0.942 µM (active)
CN(C)CCNc1ccc2c(=O)n(CCN(C)C)c(=O)n3c4ccc([N+](=O)[O-])cc4c(=O)c1c23,GI50,MDA-N,0.287 µM (active)
CC(C)(C)c1ccc(-c2nc3ccccc3c(=O)o2)cc1,GI50,MDA-N,41.2 µM (inactive)
